Values quoted from earlier work, collected in paper PMC7522491 (Molecular Metabolism, 2020).
Where no end group is shown, it is not given here.

Key:
[1] = infusion into the portal circulation, dogs
[2] = administration in mice

Row | Compound | hepatic insulin clearance [1] | blood insulin levels / insulin clearance [2]
1 | CCCCCCCC/C=C\CCCCCCCC(=O)O [oleate] | suppressed hepatic insulin clearance | –
2 | glucagon-like peptide-1 (HAEGTFTSDVSSYLEGQAAKEFIAWLVKGR; ends and bridges not checked; UniProt P55095 98-127, looked up) [GLP-1, incretin hormone administered in mice (literature)] | – | increased blood insulin levels in part by reducing insulin clearance
